The supplement of paper PMC13380429
± gives the standard deviation of the averaged measurements.

Legend:
Details in all cases: 72 h
U2OS [1] = experiment: cell viability relative to DMSO; higher = less toxic
Caco-2 [2] = experiment: as above
HepG2 [3] = experiment: as above
Calu-3 [4] = experiment: as above
Vero E6 [5] = experiment: as above
U2OS [6] = experiment: drug sensitivity score (DSS) for viability; higher = more toxic; extreme values may be limits of the assay
Caco-2 [7] = experiment: as above
HepG2 [8] = experiment: as above
Calu-3 [9] = experiment: as above
Vero E6 [10] = experiment: as above
U2OS [11] = experiment: relative viability EC50 (midpoint between 100% and the lowest measured viability); higher = less toxic
Caco-2 [12] = experiment: as above
HepG2 [13] = experiment: as above
Calu-3 [14] = experiment: as above
Vero E6 [15] = experiment: as above

Row | Structure (SMILES) | cell viability (U2OS [1]; 1 nM) [%] | cell viability (U2OS [1]; 10 nM) [%] | cell viability (U2OS [1]; 100 nM) [%] | cell viability (U2OS [1]; 1000 nM) [%] | cell viability (U2OS [1]; 10000 nM) [%] | cell viability (Caco-2 [2]; 1 nM) [%] | cell viability (Caco-2 [2]; 10 nM) [%] | cell viability (Caco-2 [2]; 100 nM) [%] | cell viability (Caco-2 [2]; 1000 nM) [%] | cell viability (Caco-2 [2]; 10000 nM) [%] | cell viability (HepG2 [3]; 1 nM) [%] | cell viability (HepG2 [3]; 10 nM) [%] | cell viability (HepG2 [3]; 100 nM) [%] | cell viability (HepG2 [3]; 1000 nM) [%] | cell viability (HepG2 [3]; 10000 nM) [%] | cell viability (Calu-3 [4]; 1 nM) [%] | cell viability (Calu-3 [4]; 10 nM) [%] | cell viability (Calu-3 [4]; 100 nM) [%] | cell viability (Calu-3 [4]; 1000 nM) [%] | cell viability (Calu-3 [4]; 10000 nM) [%] | cell viability (Vero E6 [5]; 1 nM) [%] | cell viability (Vero E6 [5]; 10 nM) [%] | cell viability (Vero E6 [5]; 100 nM) [%] | cell viability (Vero E6 [5]; 1000 nM) [%] | cell viability (Vero E6 [5]; 10000 nM) [%] | drug sensitivity score (U2OS [6]) | drug sensitivity score (Caco-2 [7]) | drug sensitivity score (HepG2 [8]) | drug sensitivity score (Calu-3 [9]) | drug sensitivity score (Vero E6 [10]) | relative viability EC50 (U2OS [11]) [µM] | relative viability EC50 (Caco-2 [12]) [µM] | relative viability EC50 (HepG2 [13]) [µM] | relative viability EC50 (Calu-3 [14]) [µM] | relative viability EC50 (Vero E6 [15]) [µM]
1 | CCOC(=O)C1=C(N)Oc2ccc(Br)cc2C1C(C#N)C(=O)OCC (stereo not given) [HA-14-1] | 95 | 99.9 | 99 | 101 | 110 | 99 ± 3.9 | 95.2 ± 4.1 | 104 ± 4.9 | 99.7 ± 4.6 | 99.5 ± 5 | 100 ± 2.5 | 97.3 ± 9.6 | 98.2 ± 4.7 | 95.7 ± 7.4 | 96.8 ± 7.7 | 95.2 ± 7.3 | 105 ± 8.6 | 97 ± 0.99 | 98.2 ± 4.5 | 108.6 ± 0.14 | 93 | 100 | 90 | 97.7 | 99.3 | 0 | 0 | 0 | 0 | 0 | > 10 | > 10 | > 10 | > 10 | > 10
2 | COc1ccc(-c2cc3c(C)nc(N)nc3n([C@H]3CC[C@H](OCCO)CC3)c2=O)cn1 | 100 | 95 | 89.1 | 32.6 | 3.8 | 92.5 | 89.9 | 67.1 | 27.7 | 23.4 | 104 | 103 | 77.5 | 28.7 | 20.1 | 85.3 | 87.3 | 56 | 19.6 | 10 | 94 | 98.4 | 74.4 | 30 | 17 | 14.2 | 17.2 | 15.9 | 20.8 | 16 | 0.504 | 0.114 | 0.202 | 0.0917 | 0.21
3 | COc1cccc(OC)c1-c1ccc(C[C@H](NC(=O)c2c(Cl)cccc2Cl)C(=O)O)cc1 | 103 | 96.5 | 98.5 | 97.8 | 93.4 | 85.9 | 90.1 | 97.6 | 94.4 | 108 | 91.7 | 104 | 91 | 99.5 | 99.3 | 104 | 90.9 | 105 | 96.9 | 108 | 92.2 | 96.2 | 91.8 | 99.9 | 107 | 0 | 0 | 0 | 0 | 0 | > 10 | > 10 | > 10 | > 10 | > 10
4 | CCCCCCCCCCOc1cc2c(O)c(C(=O)OCC)cnc2cc1OCC [decoquinate] | 100 | 99.8 | 99 | 99.6 | 100 | 101 | 92.6 | 93.3 | 89.4 | 96.6 | 95.9 | 103 | 98.9 | 107 | 96.2 | 99.8 | 107 | 106 | 98.2 | 105 | 102 | 103 | 105 | 96.7 | 103 | 0 | 0 | 0 | 0 | 0 | > 10 | > 10 | > 10 | > 10 | > 10
5 | FC(F)(F)C(F)(F)C(F)(F)N(C(F)(F)C(F)(F)C(F)(F)F)C(F)(F)C(F)(F)C(F)(F)F [perfluamine] | 105 | 97 | 99.8 | 97.1 | 100 | 98 | 96.8 | 95 | 88.6 | 101 | 101 | 97.7 | 92.2 | 101 | 93.7 | 103 | 93.2 | 99.7 | 107 | 98.3 | 96.5 | 97.9 | 100 | 103 | 91.1 | 0 | 0 | 0 | 0 | 0 | > 10 | > 10 | > 10 | > 10 | > 10
6 | O=C(O)c1cc([N+](=O)[O-])ccc1NCCCc1ccccc1 [NPPB] | 101 | 98.3 | 100 | 96.4 | 94.8 | 102 | 87.7 | 93.5 | 95.5 | 94.5 | 91.7 | 101 | 97.5 | 102 | 99.9 | 99.7 | 105 | 101 | 114 | 96.2 | 94.9 | 98.3 | 90.5 | 94 | 105 | 0 | 0 | 0 | 0 | 0 | > 10 | > 10 | > 10 | > 10 | > 10
7 | C[C@]12CC[C@H](O)C[C@H]1CC[C@@H]1[C@@H]2C[C@@H](O)[C@]2(C)[C@@H](C3=CC(=O)OC3)CC[C@]12O [digoxigenin] | 96.9 | 105 | 92.3 | 58.4 | 5.8 | 92.9 | 106 | 114 | 80.5 | 44.6 | 100 | 109 | 89.1 | 39.5 | 12.6 | 99.8 | 111 | 101 | 91.6 | 29 | 107 | 108 | 77.4 | 1.3 | 1.1 | 10 | 5.7 | 12.8 | 5.3 | 21.4 | 1.14 | 1.28 | 0.52 | 2.19 | 0.163
